Source: patent US7371728B2, “Prostate-specific antigen probes for optical imaging” (Kaohsiung Medical University, priority 2005, dated 2008)
“Also recorded” adds a separate entry of the source. Square brackets hold non-standard residues; d marks the D form. Ends that are not written are not given here. * marks the point of attachment. FITC = O=C1OC2(c3ccc(O)cc3Oc3cc(O)ccc32)c2ccc(NC(=S)*)cc21; Hyp = O=C(O)[C@@H]1C[C@@H](O)CN1; Chg = N[C@H](C(=O)O)C1CCCCC1

Key:
[1] = target: T1, prostate-specific antigen (Homo sapiens, UniProt P07288); assay: HPLC study of peptide specificity for prostate-specific antigen; format: biochemical; conditions: in the presence of prostate-specific antigen enzyme; fluorescence detection 480/525 nm
Text: The Study of Peptide Specificity for Prostate-Specific Antigen: • The high performance liquid chromatography is used for application in study of peptide separation, peptide purity analysis and specific enzyme-cutting specificity for a peptide substrate. […] The goal of the study of the present invention is to develop prostate peptide substrates and enzymes by in-vitro experiments.
The chromatographic diagrams of specificity analysis of the prostate peptide substrates and prostate-specific antigen are shown in FIGS. 3 and 4. The conditions of the HPLC are as follows: a reverse C18 chromatography column, mobile phase is methyl alcohol: 1% triethylamine=60:40(v/v), flow rate is 0.5 ml/min. […] There are two peaks in the spectrums if HPLC runs in the presence of the prostate-specific antigen with the retention times being 2.7 and 3.2 min as shown in FIG. 3.

[2] = target: T1, prostate-specific antigen; assay: Quenching and non-quenching study: fluorescence intensity over time after reaction with prostate-specific antigen; format: biochemical; conditions: 35 minutes
Text: FIG. 5. is a fluorescence absorption verse time diagram showing fluorescence intensity of a control peptide probe (×) for a prostate peptide substrate probe Cy-prostate-PGC (▪), control peptide probe (Δ) and a prostate peptide probe in the presence of a prostate-specific antigen (♦) according to the present invention;
At different time, a prostate peptide substrate and prostate control peptide are reacted with an enzyme of prostate-specific antigen to record its fluorescence spectrum and the results are shown in FIG. 5. […] When the reaction time for the reaction between prostate peptide substrate and the prostate-specific antigen reaches 35 minutes and the signal intensity becomes 5 times as that of the original fluorescence intensity.

T1 sequence (P07288 25-261): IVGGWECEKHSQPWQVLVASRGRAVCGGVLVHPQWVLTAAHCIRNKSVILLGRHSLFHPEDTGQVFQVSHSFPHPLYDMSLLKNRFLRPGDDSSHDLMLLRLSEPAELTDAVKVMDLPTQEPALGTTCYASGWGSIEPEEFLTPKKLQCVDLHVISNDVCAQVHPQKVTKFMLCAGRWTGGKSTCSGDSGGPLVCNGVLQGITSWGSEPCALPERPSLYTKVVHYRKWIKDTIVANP

G[Hyp]AS[Chg]QSLMK(FITC)C-NH2 [prostate peptide substrate]
cutting of the peptide by prostate-specific antigen (HPLC) [1]: can cut Gln-Ser residue; also recorded: one major cut | fluorescence signal intensity relative to the original fluorescence intensity [2]: 5 times
